Measured values reported in PMC9937801 (Journal of Pharmaceutical Analysis, 2022).

Molecular target: squalene epoxidase (SQLE) (Homo sapiens, UniProt Q14534)
Assay: SPR
Format: binding

Chain of squalene epoxidase (SQLE) (Q14534 whole entry): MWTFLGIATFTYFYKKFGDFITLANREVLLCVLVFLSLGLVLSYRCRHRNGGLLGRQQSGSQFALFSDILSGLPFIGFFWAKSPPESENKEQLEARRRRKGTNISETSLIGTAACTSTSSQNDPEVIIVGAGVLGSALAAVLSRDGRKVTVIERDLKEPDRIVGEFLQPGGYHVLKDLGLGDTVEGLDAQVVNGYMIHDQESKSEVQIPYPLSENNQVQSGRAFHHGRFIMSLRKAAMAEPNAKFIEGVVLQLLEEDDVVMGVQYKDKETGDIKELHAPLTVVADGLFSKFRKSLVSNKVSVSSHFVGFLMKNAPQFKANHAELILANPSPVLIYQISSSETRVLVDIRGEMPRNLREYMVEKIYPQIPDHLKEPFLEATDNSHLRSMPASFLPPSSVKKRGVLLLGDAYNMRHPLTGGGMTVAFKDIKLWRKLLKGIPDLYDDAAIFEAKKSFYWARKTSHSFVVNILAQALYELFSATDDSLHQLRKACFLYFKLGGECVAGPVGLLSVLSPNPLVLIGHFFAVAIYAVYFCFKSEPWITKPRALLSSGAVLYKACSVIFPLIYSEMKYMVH

Work on `C[C@@H]1CC[C@@]2(OC1)O[C@H]1C[C@H]3[C@@H]4CC=C5C[C@@H](O[C@@H]6O[C@H](CO)[C@@H](O[C@@H]7O[C@@H](CO)[C@H](O)[C@H]7O)[C@H](O)[C@H]6O[C@@H]6O[C@@H](C)[C@H](O)[C@@H](O)[C@H]6O)CC[C@]5(C)[C@H]4CC[C@]3(C)[C@H]1[C@@H]2C` [PPI, Polyphyllin I] yielded a Kd of 26.3 µM.
